Data taken from US20200360331A1, “COMPOSITIONS COMPRISING 15-HEPE AND/OR 15-HETrE AND METHODS OF TREATING OR PREVENTING CARDIOMETABOLIC DISEASE, METABOLIC SYNDROME, AND/OR RELATED DISEASES” (Afimmune Limited, priority 2019, published 2020).
“Also recorded” adds a separate entry of the source.

Experiments:
[1] = test system: BDL-operated mice; test: BDL study: Sirius red staining of liver sections, fibrosis area; assay type: in vivo, C57BL/6J mice
Procedure: BDL Surgery: On Day 0 of the study, BDL surgery was performed under pentobarbital (Kyoritsu Seiyaku, Japan) anesthesia. The mouse's hair was first shaved, the abdominal cavity cut open, and the common bile duct was ligated twice with 7-0 surgical silk. The mouse's peritoneum and the skin were closed with sutures, and the mice were transferred to a clean cage (e.g., resting cage) until recovered from anesthesia. Sham operated mice had their common bile duct exposed but not ligated.
[…]: To visualize collagen deposition, Bouin's fixed liver sections were stained using picro-Sirius red solution (Waldeck, Germany). For quantitative analysis of fibrosis area, bright field images of Sirius red-stained sections were captured using a digital camera (DFC295, Leica, Germany) at 100-fold magnification, and the positive areas in 5 fields/section were measured using ImageJ software (National Institute of Health, USA).

[2] = biological target: T1, type II TGF-β receptor (Homo sapiens, UniProt P37173); test: Degradation of type II TGF-β receptor in HepG2 cells; assay type: cell-based; conditions: increasing doses for 1 hour, then 200 pM TGF-β for 48 hours
T1 construct: endogenous in cells; host or cells: HepG2
T1 sequence (P37173 23-567): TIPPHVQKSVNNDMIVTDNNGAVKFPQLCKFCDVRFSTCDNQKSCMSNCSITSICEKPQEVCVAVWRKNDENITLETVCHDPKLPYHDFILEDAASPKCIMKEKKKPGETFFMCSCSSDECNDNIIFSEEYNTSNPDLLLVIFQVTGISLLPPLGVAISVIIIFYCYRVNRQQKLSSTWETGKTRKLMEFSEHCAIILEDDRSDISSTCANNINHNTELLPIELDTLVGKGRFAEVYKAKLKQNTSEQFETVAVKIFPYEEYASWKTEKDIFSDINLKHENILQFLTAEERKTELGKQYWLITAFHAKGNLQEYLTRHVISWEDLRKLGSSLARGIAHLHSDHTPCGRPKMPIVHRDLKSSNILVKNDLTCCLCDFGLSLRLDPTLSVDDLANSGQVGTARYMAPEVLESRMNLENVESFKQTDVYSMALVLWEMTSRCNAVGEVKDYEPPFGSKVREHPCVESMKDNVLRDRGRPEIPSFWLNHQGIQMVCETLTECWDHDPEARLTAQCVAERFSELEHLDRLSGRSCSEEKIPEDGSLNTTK
Procedure: The effects of 15-HEPE on TGF-β-induced signaling and cellular responses were determined. To test the effect of 15-HEPE on TGF-β-induced signaling, the activities of 15-HEPE to regulate TGF-β-stimulated Smad2 phosphorylation and nuclear translocation, both of which are key signaling events leading to TGF-β-induced cellular responses, were tested. One important biological activity of TGF-β is transcriptional activation of genes responsible for epithelial-mesenchymal transition (EMT), which is a crucial event in wound healing, tissue fibrosis, and cancer progression. The effect of 15-HEPE on TGFβ-induced epithelial mesenchymal transition related proteins (such as fibronectin, PAI-1, and N-cadherin etc.) expression in HepG2 and […] cells were assessed. HepG2 cells (human hepatoma cell line) were treated in increasing doses of 15-HEPE stage II in DMEM containing 0.1% of FBS for 1 hour and continually stimulated with or without 200 picomolar (pM) of TGF-β for 48 hours.
HepG2 cells (human hepatoma cell line) were treated in increasing doses of 15-HEPE stage II in DMEM containing 0.1% of FBS for 1 hour and continually stimulated with or without 200 picomolar (pM) of TGF-β for 48 hours. The two panels shown in FIG. 18A are two separate experiments run under the same experimental conditions.

[3] = test system: NAFLD patients; test: Phase IIa NAFLD study: hepatic fat by CAP; assay type: in vivo, human; conditions: patients diagnosed with NAFLD
Procedure: The study was planned to include 96 evaluable patients with 32 patients randomized per treatment group. […] Liver stiffness and CAP: Liver stiffness and CAP were assessed using transient elastography (e.g., FibroScan® 502 Touch model or equivalent). Patients were fasted and scanned at the same time of the day, if possible, for baseline (Week 0) and Visit 10 (Week 16). For this assessment the following conditions were met: patients were lying in dorsal decubitus position with the right arm in maximal abduction behind the head, in a similar position to that used for liver biopsy (LB); the tip of the transducer was placed on the skin between the ribs over the right lobe of the liver (the physician took the measurements with the probe placed in the intercostal space); during the FibroScan® examination the choice of M+ or XL+ probe was determined by the Automatic Probe Selection tool (APS) (If, the APS tool advises to use the “XL+ probe” or “switch” continuously between “M+ and XL+ probe”, only the XL+ probe was used); and the operator, assisted by an ultrasonic time motion image, located a portion of the liver which is free of large vascular structures (the depth of measurement was between 35-75 mm for the XL+ probe and 25-65 mm for the M+ probe and the explored volume will be 3 cm^3). […] The final stiffness and CAP values was recorded as median values of valid measurements.

For `CC/C=C\CC(O)/C=C/C=C\C/C=C\C/C=C\CCCC(=O)O` (centres unmarked) [DS102, 15-hydroxy-eicosa-5Z,8Z,11Z,13E,17Z-pentaenoic acid], the “fibrosis area compared with the Vehicle group” value ([1]; BDL mice liver, 500 mg/kg) was “tended to decrease; also recorded: trend approaching significance”, the “fibrosis area compared with the Vehicle group” value ([1]; BDL mice, liver, 50 mg/kg) was “no significant difference” and the Sirius red-positive area ([1]; BDL mice, liver, 50 mg/kg PO QD Day 0-13, Day 14) was 1.70 ± 0.63%. The “fibrosis area compared with the Vehicle group” value ([1]; BDL mice, liver, 250 mg/kg) was “significant decrease”, the Sirius red-positive area ([1]; BDL mice, liver, 250 mg/kg PO QD Day 0-13, Day 14) was 1.06 ± 0.48% and the Sirius red-positive area ([1]; BDL mice, liver, 500 mg/kg PO QD Day 0-13, Day 14) was 1.42 ± 0.60%. For the same compound, the “degradation of type II TGF-β receptor” value [2] was “induced degradation of type II TGF-β receptor” and the “hepatic fat content as assessed by CAP” value [3] was “reduced”.
